In patent publication US5954858A, “Bioreactor process for the continuous removal of organic compounds from a vapor phase process stream” (North Carolina State University, priority 1996, dated 1999):
“Also recorded” adds a separate entry of the source.

Assays:
Strain px-2 = assay: Oxygen uptake rate, strain px-2; type: cell-based, bacterial strain px-2
Procedure: (§1) Experiments were conducted to examine the range of compounds degraded by enzymes present in the metabolic pathways of the strains established on meta- and para-xylene, as described in Example 7. […] The compounds listed Table 7 from benzoate through protocatechuate are enzymatic pathway intermediates in the oxidation of aromatic compounds.

Strain mx-2 = assay: Oxygen uptake rate, strain mx-2; type: cell-based, bacterial strain mx-2
Procedure: as §1

isolated soil consortia = assay: Degradability / utilization as growth substrate by isolated soil consortia; type: cell-based; settings: utilization as carbon source for growth and energy
Description: (§2) Using a mixed consortium of organisms isolated in liquid culture from soil samples removed from a site saturated with gasoline for a number of years, the model compounds from each of the represented species in furniture exhaust gases were examined for degradability. Degradability actually refers to the ability of the microorganisms to utilize a compound as a carbon source for growth and energy. Different carbon sources are preferred by different organisms, so it was important to determine which model compounds were acceptable for the consortium which was isolated. Following completion of these initial studies, organism subcultures were generated for specific compounds.

mx-2 [1] = assay: m-Xylene degradation rate of mx-2 strain; type: cell-based, mx-2 bacterial strain
Description: as §2, with “Different carbon sources are preferred by different organisms, so it was important to determine which model compounds were acceptable for the consortium which was isolated.” left out
(§3) Maximum growth rates for the isolated consortia were determined in shake flask studies containing minimal media and supplemented with the appropriate compound. Concentrations of volatile organic compounds added to the flasks were 400 ppm (mole/mole) for MEK and MIBK, 150 ppm for m-xylene and p-xylene, and 2000 ppm for IBA and methanol.
(§4) The effects of carbon source composition were examined for the mx-2 bacterial strain. mx-2 is one of the strains of microorganism isolated from soil samples exposed to gasoline as described in Example 7.
(§5) In addition to examining the effects of ethanol and methanol, the impact of octanol on microorganism growth was determined. This investigation was necessary since some octanol (stripping fluid) will be delivered to the membrane bioreactor with the VHAPs/VOCs.

mx-2 [2] = assay: Growth rate of mx-2 strain in shake flask; type: cell-based, mx-2 bacterial strain; settings: for effect on the growth rate: mx-2 mixed carbon source study
Description: as §2, with “Different carbon sources are preferred by different organisms, so it was important to determine which model compounds were acceptable for the consortium which was isolated.” left out
as §3, §4, §5

[3] = test system: initial gasoline consortium; assay: Enrichment of the initial gasoline consortium in individual flasks; type: cell-based, organisms isolated from gasoline-saturated soil samples
Description: as §2

[4] = Partition coefficient of solute between octanol and water; type: physicochemical; settings: 31 °C
[5] = Partition coefficient of solute between stripping fluid (octanol) and air; type: physicochemical
Procedure: Before beginning work with the LIQUI-CEL® membrane modules presented in Example 2, partition coefficient experiments were performed to investigate the equilibrium distribution of m-xylene, MEK, and MIBK between phases for stripping fluid/air. Octanol was chosen as the stripping fluid because data from previously conducted studies was readily available for comparison.
(§6) Partition coefficients are defined as a measure of the affinity a solute has for one phase over another at equilibrium. Therefore, they are an integral part of equations related to membrane contactor design and operation. Partition coefficients are expressed as a ratio of concentrations; the general form being (concentration in solvent)/(concentration in air).
For these studies, two forms of the partition coefficient were used. The first was the general form, which indicated the level of driving force for mass transfer (a value greater than 1 indicates sufficient driving force). The second form was defined as 1/(general form), or 1/Pgen, which was used in system operating equations.

[6] = Partition coefficient of m-xylene between natural oils and air; type: physicochemical; settings: 31 °C
Description: as §6
An additional set of experiments was run to evaluate stripping fluids other than octanol. This was due mainly to the relatively high cost of commercially available octanol. Partition coefficients were determined for m-xylene in several natural oils at 31° C. […] The purchase cost of these oils is roughly one-quarter that of octanol.

isolated consortia = assay: Growth rate of cultures on o-xylene; type: cell-based, bacterial cultures isolated from soil samples
Description: as §2
as §3, with “Pure bacterial cultures (single identifiable organisms) were established on meta- and para-xylene; the other cultures consisted of approximately three different bacterial strains each. Maximum” for “Maximum”

[7] = mx-2 on m-xylene, + 500 ppm octanol

Row | SMILES | Oxygen Uptake (Strain px-2) [μmol/min-mg total protein] | Oxygen Uptake (Strain mx-2) [μmol/min-mg total protein] | Degradability (isolated soil consortia) | cultures capable of degrading compound after enrichment [3] | also measured
1 | Cc1cccc(O)c1O [3-Methylcatechol] | 1.50 | 1.17 |  |  | 
2 | Cc1ccc(O)c(O)c1 [4-Methylcatechol] | 4.35 | 0.92 |  |  | 
3 | CC(C)=O [Acetone] |  |  | Yes |  | 
4 | c1ccccc1 [Benzene] | 0.13 | 0.27 |  |  | 
5 | O=C(O)c1ccccc1 [Benzoate] | 2.34 | 0.66 |  |  | 
6 | Oc1ccccc1O [Catechol] | 5.19 | 1.23 |  |  | 
7 | CCO [Ethanol] |  |  | Yes |  | reduction of the degradation rate of m-xylene (mx-2 [1]; mx-2, in presence of ethanol): about 30%; Degradation Rate (mx-2 [1]; mx-2 on m-xylene, + 0.2% EtOH): 2.34 * 10^-10 mg/(hr - cell); effect on the growth rate (mx-2 [2]): negligible; Specific Growth Rate (mx-2 [2]; mx-2 on m-xylene, + 0.2% EtOH): 0.40 h⁻¹; lowering of the maximum growth rate (mx-2 [2]; mx-2 on m-xylene, in presence of ethanol): 10%
8 | C=O [Formaldehyde] |  |  | Yes |  | 
9 | CC(C)CO [Isobutyl alcohol] |  |  | Yes |  | 
10 | CCC(C)=O [MEK, methyl ethyl ketone] |  |  | Yes | cultures capable of degrading each compound were developed | 
11 | CC(=O)CC(C)C [MIBK, methyl isobutyl ketone] |  |  | Yes | cultures capable of degrading each compound were developed | Partition Coef. [oct]/[water] [4]: 2.1; Partition Coef. [oct]/[air] ([5]; 6 °C): .infin.; Partition Coef. [oct]/[air] ([5]; 22 °C): 22,045; Partition Coef. [oct]/[air] ([5]; 31 °C): 8,721
12 | CO [Methanol, methanol] |  |  | Yes | cultures capable of degrading each compound were developed | Degradation Rate (mx-2 [1]; mx-2 on m-xylene, + 0.2% MeOH): 3.57 * 10^-10 mg/(hr - cell); effect on the growth rate (mx-2 [2]): negligible; also recorded: no effect; Specific Growth Rate (mx-2 [2]; mx-2 on m-xylene, + 0.2% MeOH): 0.45 h⁻¹
13 | C=Cc1ccccc1 [Styrene] | 0.47 | 0.55 | Yes |  | 
14 | Cc1ccccc1 [Toluene] | 0.17 | 0.18 | Yes |  | 
15 | CC(=O)OCC(C)C [isobutyl acetate] |  |  |  | cultures capable of degrading each compound were developed | 
16 | Cc1cccc(C)c1 [m-xylene] | 0.31 | 0.82 | Yes | cultures capable of degrading each compound were developed | Degradation Rate (mx-2 [1]; mx-2 (grown on m-xylene, 150 ppm)): 3.60 * 10^-10 mg/(hr - cell); Partition Coef. [oct]/[water] [4]: 1,021; Specific Growth Rate (mx-2 [2]; mx-2 (strain grown on m-xylene, 150 ppm)): 0.46 hr^1; Partition Coef. [oct]/[air] ([5]; 6 °C): 9,865; Partition Coef. [oct]/[air] ([5]; 22 °C): 7,978; Partition Coef. [oct]/[air] ([5]; 31 °C): 7,703; form 2 partition coefficient, Pair/oct (1/general form) ([5]; air/stripping fluid separation unit): 0.00014; Partition Coef. [solvent]/[air] ([6]; corn oil): 8,283; Partition Coef. [solvent]/[air] ([6]; mineral oil): 7,284; Partition coefficients in natural oils versus octanol ([6]; natural oils evaluated): comparable to those for octanol; Partition Coef. [solvent]/[air] ([6]; sunflower seed oil): 8,244
17 | CCCCO [n-Butyl alcohol] |  |  | Yes |  | 
18 | Cc1ccccc1C [o-Xylene] |  | 0.31 | Yes |  | growth rate compared with other compounds (isolated consortia): relatively slow compared with that on other compounds
19 | CCCCCCCCO [octanol] |  |  |  |  | Degradation Rate (mx-2 [1]; [7]): 3.60 * 10^-10 mg/(hr - cell); effect on the degradation rate (mx-2 [1]; test microorganism strain grown on m-xylene): no effect; Specific Growth Rate (mx-2 [2]; 500 ppm octanol (without "+")): 0.20 h⁻¹; effect on the growth rate (mx-2 [2]): no effect; Specific Growth Rate (mx-2 [2]; [7]): 0.46 h⁻¹
20 | Cc1ccc(C)cc1 [p-Xylene] | 0.34 | 1.21 | Yes | cultures capable of degrading each compound were developed | 
